Measurements from patent US10611740B2, “Aryl dihydro-2H-benzo[b][1,4]oxazine sulfonamide and related compounds for use as agonists of RORγ and the treatment of disease” (Lycera Corporation, priority 2015, dated 2020).

Experiments:
RORγ-LBD = biological target: T1, RORγ-LBD (Homo sapiens, UniProt P51449); experiment: RORγ-Ligand Binding Domain (LBD) TR-FRET Assay; format: biochemical;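 for TR-FRET Assay Max Response: 665/615 nm ratio relative to signal without ursolic acid or compound set at 100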
T1 construct: made in house; host or cells: SF9 cells (baculovirus)
T1 sequence (P51449 269-508 limits assumed): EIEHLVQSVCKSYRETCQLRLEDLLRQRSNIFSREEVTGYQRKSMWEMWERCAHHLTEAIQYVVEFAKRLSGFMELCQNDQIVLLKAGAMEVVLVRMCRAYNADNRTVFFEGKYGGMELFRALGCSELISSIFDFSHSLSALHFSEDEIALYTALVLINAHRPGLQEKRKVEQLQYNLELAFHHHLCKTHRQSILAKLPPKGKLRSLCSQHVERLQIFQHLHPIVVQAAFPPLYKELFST
Procedure, shortened: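 TR-FRET read-out using a biotin-tagged SRC1 coactivator LXXLL peptide (200 nM final), with the antagonist ursolic acid present at 2 μM final. Receptor is His-tagged LBD expressed in SF9 cells, ~3 nM final in pH 7.0 Tris/KCl/EDTA/DTT/BSA buffer; compounds in 1% DMSO final.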

Gal4-RORγ-LBD = biological target: T2, Gal4-RORγ-LBD (Homo sapiens, UniProt P51449); experiment: Gal4-RORγ Luciferase Reporter Assay in HEK-293T Cells; format: cell-based; conditions: HEK-293 cells
T2 construct: expressed in transfected cells; host or cells: HEK-293 cells (pcDNA3.1neo plasmid)
T2 sequence (P51449 269-508 limits assumed): T1 sequence (P51449 269-508 limits assumed)
Procedure, shortened: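 Luminescence read-out (One-Glo, 10 min RT) after overnight compound exposure at 37 °C in HEK-293 cells carrying Gal4-RORγ-LBD plus a Gal4-luciferase reporter, in the presence of 2 μM ursolic acid. Max Response is the upper plateau from a 4-parameter logistic fit, normalized to untreated signal = 100.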

[1] = luciferase reporter, with 2 μM ursolic acid

O=C(O)CC[C@H]1CN(S(=O)(=O)c2cccc(C(F)(F)F)c2)c2cc(-c3cccc(F)c3F)c(Cl)cc2O1 [Compound 22B, (S)-3-(7-chloro-6-(2,3-difluorophenyl)-4-((3-(trifluoromethyl)phenyl)sulfonyl)-3,4-dihydro-2H-benzo[b][1,4]-oxazin-2-yl)propanoic acid]
EC50 (RORγ-LBD): < 500 nM | TR-FRET Assay Max Response (RORγ-LBD): **** (The symbol “****” indicates a value greater than 200) | EC50 (Gal4-RORγ-LBD; [1]): < 500 nM | Gal4-RORγ Assay Max Response (Gal4-RORγ-LBD; [1]): ** (The symbol “**” indicates a value in the range of greater than 90 to 150)

COc1cccc(-c2cc3c(cc2Cl)O[C@@H](CCC(=O)O)CN3S(=O)(=O)c2cccc(C(F)(F)F)c2)c1 [Compound 22C, (S)-3-(7-chloro-6-(3-methoxyphenyl)-4-((3-(trifluoromethyl)phenyl)sulfonyl)-3,4-dihydro-2H-benzo[b][1,4]-oxazin-2-yl)propanoic acid]
EC50 (RORγ-LBD): < 500 nM | TR-FRET Assay Max Response (RORγ-LBD): **** (The symbol “****” indicates a value greater than 200) | EC50 (Gal4-RORγ-LBD; [1]): < 500 nM | Gal4-RORγ Assay Max Response (Gal4-RORγ-LBD; [1]): ** (The symbol “**” indicates a value in the range of greater than 90 to 150)

COc1cccc(-c2cc(F)c3c(c2)N(S(=O)(=O)c2cccc(C(F)(F)F)c2)C[C@H](CCC(=O)O)O3)c1 [Compound 22D, (S)-3-(8-fluoro-6-(3-methoxyphenyl)-4-((3-(trifluoromethyl)phenyl)sulfonyl)-3,4-dihydro-2H-benzo[b][1,4]-oxazin-2-yl)propanoic acid]
EC50 (RORγ-LBD): < 500 nM | TR-FRET Assay Max Response (RORγ-LBD): **** (The symbol “****” indicates a value greater than 200) | EC50 (Gal4-RORγ-LBD; [1]): < 500 nM | Gal4-RORγ Assay Max Response (Gal4-RORγ-LBD; [1]): ** (The symbol “**” indicates a value in the range of greater than 90 to 150)

O=C(O)CC[C@H]1CN(S(=O)(=O)c2cccc(C(F)(F)F)c2)c2cc(-c3cccc(F)c3F)cc(F)c2O1 [Compound 22E, (S)-3-(6-(2,3-difluorophenyl)-8-fluoro-4-((3-(trifluoromethyl)phenyl)sulfonyl)-3,4-dihydro-2H-benzo[b][1,4]-oxazin-2-yl)propanoic acid]
EC50 (RORγ-LBD): < 500 nM | TR-FRET Assay Max Response (RORγ-LBD): **** (The symbol “****” indicates a value greater than 200) | EC50 (Gal4-RORγ-LBD; [1]): < 500 nM | Gal4-RORγ Assay Max Response (Gal4-RORγ-LBD; [1]): ** (The symbol “**” indicates a value in the range of greater than 90 to 150)

O=C(O)CC[C@H]1CN(S(=O)(=O)c2cccc(C(F)(F)F)c2)c2cc(-c3cc(F)cc(F)c3Cl)c(Cl)cc2O1 [Compound 22G, (S)-3-(7-chloro-6-(2-chloro-3,5-difluorophenyl)-4-((3-(trifluoromethyl)phenyl)sulfonyl)-3,4-dihydro-2H-benzo[b][1,4]-oxazin-2-yl)propanoic acid]
EC50 (RORγ-LBD): < 500 nM | TR-FRET Assay Max Response (RORγ-LBD): *** (The symbol “***” indicates a value in the range of greater than 150 to 200) | EC50 (Gal4-RORγ-LBD; [1]): < 500 nM | Gal4-RORγ Assay Max Response (Gal4-RORγ-LBD; [1]): ** (The symbol “**” indicates a value in the range of greater than 90 to 150)

O=C(O)CC[C@H]1CN(S(=O)(=O)c2cccc(C(F)(F)F)c2)c2cc(-c3cc(F)cc(F)c3Cl)cc(F)c2O1 [Compound 22H, (S)-3-(6-(2-chloro-3,5-difluoro-phenyl)-8-fluoro-4-((3-(trifluoro-methyl)phenyl)sulfonyl)-3,4-dihydro-2H-benzo[b][1,4]oxazin-2-yl)propanoic acid]
EC50 (RORγ-LBD): < 500 nM | TR-FRET Assay Max Response (RORγ-LBD): *** (The symbol “***” indicates a value in the range of greater than 150 to 200) | EC50 (Gal4-RORγ-LBD; 2 μM ursolic acid): < 500 nM | Gal4-RORγ Assay Max Response (Gal4-RORγ-LBD; 2 μM ursolic acid): ** (The symbol “**” indicates a value in the range of greater than 90 to 150)

O=C(O)CC[C@H]1CN(S(=O)(=O)c2cccc(C(F)(F)F)c2)c2cc(-c3cccc(Cl)c3F)cc(F)c2O1 [Compound 22I, (S)-3-(6-(3-chloro-2-fluoro-phenyl)-8-fluoro-4-((3-(trifluoromethyl)phenyl)sulfonyl)-3,4-dihydro-2H-benzo[b][1,4]-oxazin-2-yl)propanoic acid]
EC50 (RORγ-LBD): < 500 nM | TR-FRET Assay Max Response (RORγ-LBD): *** (The symbol “***” indicates a value in the range of greater than 150 to 200) | EC50 (Gal4-RORγ-LBD; 2 μM ursolic acid): < 500 nM | Gal4-RORγ Assay Max Response (Gal4-RORγ-LBD; 2 μM ursolic acid): ** (The symbol “**” indicates a value in the range of greater than 90 to 150)

O=C(O)CC[C@H]1CN(S(=O)(=O)c2cccc(C(F)(F)F)c2)c2cc(-c3cccc(Cl)c3F)c(Cl)cc2O1 [Compound 22J, (S)-3-(7-chloro-6-(3-chloro-2-fluorophenyl)-4-((3-(trifluoro-methyl)phenyl)sulfonyl)-3,4-dihydro-2H-benzo[b][1,4]oxazin-2-yl)propanoic acid]
EC50 (RORγ-LBD): < 500 nM | TR-FRET Assay Max Response (RORγ-LBD): *** (The symbol “***” indicates a value in the range of greater than 150 to 200) | EC50 (Gal4-RORγ-LBD; 2 μM ursolic acid): < 500 nM | Gal4-RORγ Assay Max Response (Gal4-RORγ-LBD; 2 μM ursolic acid): ** (The symbol “**” indicates a value in the range of greater than 90 to 150)

O=C(O)CC[C@H]1CN(S(=O)(=O)c2cccc(C(F)(F)F)c2)c2cc(-c3cc(F)cc(F)c3)cc(F)c2O1 [Compound 22K, (S)-3-(6-(3,5-difluorophenyl)-8-fluoro-4-((3-(trifluoromethyl)-phenyl)sulfonyl)-3,4-dihydro-2H-benzo[b][1,4]oxazin-2-yl)propanoic acid]
EC50 (RORγ-LBD): < 500 nM | TR-FRET Assay Max Response (RORγ-LBD): *** (The symbol “***” indicates a value in the range of greater than 150 to 200) | EC50 (Gal4-RORγ-LBD; 2 μM ursolic acid): < 500 nM | Gal4-RORγ Assay Max Response (Gal4-RORγ-LBD; 2 μM ursolic acid): ** (The symbol “**” indicates a value in the range of greater than 90 to 150)

O=C(CC[C@H]1CN(S(=O)(=O)c2cccc(C(F)(F)F)c2)c2cc(-c3cccc(Cl)c3)ccc2O1)N1CCS(=O)(=O)CC1 [Compound 23A, (S)-3-(6-(3-chlorophenyl)-4-((3-(trifluoromethyl)phenyl)sulfonyl)-3,4-dihydro-2H-benzo[b][1,4]-oxazin-2-yl)-1-(1,1-dioxidothio-morpholino)propan-1-one]
EC50 (RORγ-LBD): < 500 nM | TR-FRET Assay Max Response (RORγ-LBD): **** (The symbol “****” indicates a value greater than 200) | EC50 (Gal4-RORγ-LBD; [1]): < 500 nM | Gal4-RORγ Assay Max Response (Gal4-RORγ-LBD; [1]): ** (The symbol “**” indicates a value in the range of greater than 90 to 150)

O=C(CC[C@H]1CN(S(=O)(=O)c2cccc(C(F)(F)F)c2)c2cc(-c3cccc(Cl)c3)ccc2O1)N1CCOCC1 [Compound 23B, (S)-3-(6-(3-chlorophenyl)-4-((3-(trifluoromethyl)phenyl)sulfonyl)-3,4-dihydro-2H-benzo[b][1,4]-oxazin-2-yl)-1-morpholino-propan-1-one]
EC50 (RORγ-LBD): < 500 nM | TR-FRET Assay Max Response (RORγ-LBD): **** (The symbol “****” indicates a value greater than 200) | EC50 (Gal4-RORγ-LBD; [1]): < 500 nM | Gal4-RORγ Assay Max Response (Gal4-RORγ-LBD; [1]): ** (The symbol “**” indicates a value in the range of greater than 90 to 150)

O=C(O)C1CCN(C(=O)CC[C@H]2CN(S(=O)(=O)c3cccc(C(F)(F)F)c3)c3cc(-c4cccc(Cl)c4)ccc3O2)CC1 [Compound 23C, (S)-1-(3-(6-(3-chlorophenyl)-4-((3-(trifluoromethyl)phenyl)-sulfonyl)-3,4-dihydro-2H-benzo[b][1,4]oxazin-2-yl)propanoyl)piperidine-4-carboxylic acid]
EC50 (RORγ-LBD): < 500 nM | TR-FRET Assay Max Response (RORγ-LBD): *** (The symbol “***” indicates a value in the range of greater than 150 to 200) | EC50 (Gal4-RORγ-LBD; [1]): < 500 nM | Gal4-RORγ Assay Max Response (Gal4-RORγ-LBD; [1]): ** (The symbol “**” indicates a value in the range of greater than 90 to 150)
